Assay results from patent US20210101874A1, “MICROBIOCIDAL OXADIAZOLE DERIVATIVES” (SYNGENTA PARTICIPATIONS AG, priority 2017, published 2021).

Tests used:
[1] = tested on: Glomerella lagenarium (Colletotrichum lagenarium); experiment: Glomerella lagenarium (Colletotrichum lagenarium) liquid culture / cucumber / preventative (anthracnose); format: cell-based; conditions: Colletotrichum orbiculare; 20 ppm in the applied formulation; conidia in PDB nutrient broth, 24° C.; 3 to 4 days after application; compared to untreated; read-out: disease control (inhibition of growth measured photometrically)
Method: Mycelia fragments or conidia suspensions of a fungus prepared either freshly from liquid cultures of the fungus or from cryogenic storage, are directly mixed into nutrient broth. DMSO solutions of the test compound (max. 10 mg/ml) are diluted with 0.025% Tween20 by a factor of 50 and 10 µl of this solution is pipetted into a microtiter plate (96-well format). The nutrient broth containing the fungal spores/mycelia fragments is then added to give an end concentration of the tested compound. The test plates are incubated in the dark at 24° C. and 96% relative humidity. The inhibition of fungal growth is determined photometrically after 2 to 7 days, depending on the pathosystem, and percent antifungal activity relative to the untreated check is calculated. Conidia of the fungus from cryogenic storage are directly mixed into nutrient broth (PDB—potato dextrose broth). After placing a (DMSO) solution of test compound into a microtiter plate (96-well format), the nutrient broth containing the fungal spores is added. The test plates are incubated at 24° C. and the inhibition of growth is measured photometrically 3 to 4 days after application. The following compounds at 20 ppm in the applied formulation give at least 80% disease control in this test when compared to untreated control under the same conditions, which show extensive disease development.

[2] = tested on: Puccinia recondita f. sp. Tritici; experiment: Puccinia recondita f. sp. tritici / wheat / leaf disc preventative (brown rust); format: in vivo; conditions: foliar, 200 ppm in the applied formulation, wheat leaf segments cv. Kanzler, inoculated 1 day after application, compared to untreated, assessed 7 to 9 days after application, read-out: disease control
Method: Leaf disks or leaf segments of various plant species are cut from plants grown in a greenhouse. The cut leaf disks or segments are placed in multiwell plates (24-well format) onto water agar. The leaf disks are sprayed with a test solution before (preventative) or after (curative) inoculation. Compounds to be tested are prepared as DMSO solutions (max. 10 mg/ml) which are diluted to the appropriate concentration with 0.025% Tween20 just before spraying. The inoculated leaf disks or segments are incubated under defined conditions (temperature, relative humidity, light, etc.) according to the respective test system. A single evaluation of disease level is carried out 3 to 14 days after inoculation, depending on the pathosystem. Percent disease control relative to the untreated check leaf disks or segments is then calculated. Wheat leaf segments cv. Kanzler were placed on agar in multiwell plates (24-well format) and sprayed with the formulated test compound diluted in water. The leaf disks were inoculated with a spore suspension of the fungus 1 day after application. The inoculated leaf segments were incubated at 19° C. and 75% relative humidity (rh) under a light regime of 12 hours light/12 hours darkness in a climate cabinet and the activity of a compound was assessed as percent disease control compared to untreated when an appropriate level of disease damage appears in untreated check leaf segments (7 to 9 days after application). The following compounds at 200 ppm in the applied formulation give at least 80% disease control in this test when compared to untreated control leaf disks under the same conditions, which show extensive disease development.

Row | Compound | inhibition at 20 ppm [1] [%] | pest or weed control at 200 ppm [2] [%]
1 | COC(=O)CCS(=O)(=O)N(C)Cc1ccc(-c2noc(C(F)(F)F)n2)cc1 [Compound 1.48, methyl 3-[methyl-[[4-[5-(trifluoromethyl)-1,2,4-oxadiazol-3-yl]phenyl]methyl]sulfamoyl]propanoate] | ≥ 80 | ≥ 80
2 | COC(=O)CS(=O)(=O)N(C)Cc1ccc(-c2noc(C(F)(F)F)n2)cc1 [Compound 1.53, methyl 2-[methyl-[[4-[5-(trifluoromethyl)-1,2,4-oxadiazol-3-yl]phenyl]methyl]sulfamoyl]acetate] | ≥ 80 | ≥ 80
3 | CC(C)S(=O)(=O)N(C)Cc1ccc(-c2noc(C(F)(F)F)n2)cc1 [Compound 1.54, N-methyl-N-[[4-[5-(trifluoromethyl)-1,2,4-oxadiazol-3-yl]phenyl]methyl] propane-2-sulfonamide] | ≥ 80 | ≥ 80
4 | CCN(Cc1ccc(-c2noc(C(F)(F)F)n2)cc1)S(=O)(=O)Cc1ccccc1 [Compound 1.60, N-ethyl-1-phenyl-N-[[4-[5-(trifluoromethyl)-1,2,4-oxadiazol-3-yl]phenyl]methyl] methanesulfonamide] | ≥ 80 | ≥ 80
5 | CCCN(Cc1ccc(-c2noc(C(F)(F)F)n2)cc1)S(=O)(=O)c1ccn(C)n1 [Compound 1.65, 1-methyl-N-propyl-N-[[4-[5-(trifluoromethyl)-1,2,4-oxadiazol-3-yl]phenyl]methyl] pyrazole-3-sulfonamide] | ≥ 80 | ≥ 80
6 | CCCN(Cc1ccc(-c2noc(C(F)(F)F)n2)cc1)S(=O)(=O)N1CCCC1 [Compound 1.68, N-propyl-N-[[4-[5-(trifluoromethyl)-1,2,4-oxadiazol-3-yl]phenyl]methyl] pyrrolidine-1-sulfonamide] | ≥ 80 | ≥ 80
7 | CCCN(Cc1ccc(-c2noc(C(F)(F)F)n2)cc1)S(=O)(=O)CC1CCOC1 (centres unmarked) [Compound 1.71, N-propyl-1-tetrahydrofuran-3-yl-N-[[4-[5-(trifluoromethyl)-1,2,4-oxadiazol-3-yl]phenyl]methyl] methanesulfonamide] | ≥ 80 | ≥ 80
8 | CCCN(Cc1ccc(-c2noc(C(F)(F)F)n2)cc1)S(=O)(=O)NC [Compound 1.80, 3-[4-[[methylsulfamoyl (propyl)amino]methyl]phenyl]-5-(trifluoromethyl)-1,2,4-oxadiazole] | ≥ 80 | ≥ 80
9 | COC(=O)CCS(=O)(=O)N(Cc1ccc(-c2noc(C(F)(F)F)n2)cc1)OC [Compound 1.93, methyl 3-[methoxy-[[4-[5-(trifluoromethyl)-1,2,4-oxadiazol-3-yl]phenyl]methyl]sulfamoyl]propanoate] | ≥ 80 | ≥ 80
10 | CC(C)N(Cc1ccc(-c2noc(C(F)(F)F)n2)cc1)S(=O)(=O)N1CCCC1 [Compound 1.97, N-isopropyl-N-[[4-[5-(trifluoromethyl)-1,2,4-oxadiazol-3-yl]phenyl]methyl] pyrrolidine-1-sulfonamide] | ≥ 80 | ≥ 80
11 | CON(Cc1ccc(-c2noc(C(F)(F)F)n2)cn1)S(=O)(=O)c1ccccc1 [Compound 1.111, N-methoxy-N-[[5-[5-(trifluoromethyl)-1,2,4-oxadiazol-3-yl]-2-pyridyl]methyl] benzenesulfonamide] | ≥ 80 | ≥ 80
12 | C/C=C/S(=O)(=O)NCc1ccc(-c2noc(C(F)(F)F)n2)cc1 [Compound 2.10, (E)-N-[[4-[5-(trifluoromethyl)-1,2,4-oxadiazol-3-yl]phenyl]methyl] prop-1-ene-1-sulfonamide] | ≥ 80 | ≥ 80
13 | CCCCS(=O)(=O)NCc1ccc(-c2noc(C(F)(F)F)n2)cc1 [Compound 2.12, N-[[4-[5-(trifluoromethyl)-1,2,4-oxadiazol-3-yl]phenyl]methyl] butane-1-sulfonamide] | ≥ 80 | ≥ 80
14 | O=S(=O)(CCC(F)(F)F)NCc1ccc(-c2noc(C(F)(F)F)n2)c(F)c1 [Compound 2.18, 3,3,3-trifluoro-N-[[3-fluoro-4-[5-(trifluoromethyl)-1,2,4-oxadiazol-3-yl]phenyl]methyl] propane-1-sulfonamide] | ≥ 80 | ≥ 80
15 | CCCCS(=O)(=O)NCc1ccc(-c2noc(C(F)(F)F)n2)c(F)c1 [Compound 2.22, N-[[3-fluoro-4-[5-(trifluoromethyl)-1,2,4-oxadiazol-3-yl]phenyl]methyl] butane-1-sulfonamide] | ≥ 80 | ≥ 80
16 | COC(=O)CCS(=O)(=O)NCc1ccc(-c2noc(C(F)(F)F)n2)cc1F [Compound 2.33, methyl 3-[[2-fluoro-4-[5-(trifluoromethyl)-1,2,4-oxadiazol-3-yl]phenyl]methyl-sulfamoyl] propanoate] | ≥ 80 | ≥ 80
17 | COC(=O)CS(=O)(=O)NCc1ccc(-c2noc(C(F)(F)F)n2)cc1F [Compound 2.37, methyl 2-[[2-fluoro-4-[5-(trifluoromethyl)-1,2,4-oxadiazol-3-yl]phenyl]methyl-sulfamoyl] acetate] | ≥ 80 | ≥ 80
18 | O=S(=O)(NCc1ccc(-c2noc(C(F)(F)F)n2)c(F)c1)c1ccccc1 [Compound 3.9, N-[[3-fluoro-4-[5-(trifluoromethyl)-1,2,4-oxadiazol-3-yl]phenyl]methyl] benzenesulfonamide] | ≥ 80 | ≥ 80
19 | Cc1ccc(S(=O)(=O)NCc2ccc(-c3noc(C(F)(F)F)n3)cc2)s1 [Compound 3.11, 5-methyl-N-[[4-[5-(trifluoromethyl)-1,2,4-oxadiazol-3-yl]phenyl]methyl] thiophene-2-sulfonamide] | ≥ 80 | ≥ 80
20 | O=S(=O)(CC1CC1(Cl)Cl)NCc1ccc(-c2noc(C(F)(F)F)n2)cc1 (centres unmarked) [Compound 3.12, 1-(2,2-dichlorocyclopropyl)-N-[[4-[5-(trifluoromethyl)-1,2,4-oxadiazol-3-yl]phenyl]methyl] methanesulfonamide] | ≥ 80 | ≥ 80
21 | O=S(=O)(NCc1ccc(-c2noc(C(F)(F)F)n2)cc1)N1CCCC1 [Compound 3.13, N-[[4-[5-(trifluoromethyl)-1,2,4-oxadiazol-3-yl]phenyl]methyl] pyrrolidine-1-sulfonamide] | ≥ 80 | ≥ 80
22 | O=S(=O)(CC1CC1(Cl)Cl)NCc1ccc(-c2noc(C(F)(F)F)n2)c(F)c1 (centres unmarked) [Compound 3.16, 1-(2,2-dichlorocyclopropyl)-N-[[3-fluoro-4-[5-(trifluoromethyl)-1,2,4-oxadiazol-3-yl]phenyl]methyl] methanesulfonamide] | ≥ 80 | ≥ 80
